Reference: patent EP4129319A1, “PORE-FORMING ANTIMICROBIAL PEPTIDES” (priority 2021, dated 2023)
Like-named read-outs stand apart in the source and are kept apart here. Ends that are not written are not given here.

What was measured:
[1] = Calcein leakage assay; assay type: biochemical; conditions: for Extent of leakage (in percentage) at increasing peptide-to-lipid ratio (mol/mol) 1:100 / Extent of leakage (in percentage) at increasing peptide-to-lipid ratio (mol/mol) 1:10 / Extent of leakage (in percentage) at increasing peptide-to-lipid ratio (mol/mol) 1:20 / Extent of leakage (in percentage) at increasing peptide-to-lipid ratio (mol/mol) 1:50: calcein leakage, POPC:POPG (1:1 mol/mol) LUVs; for Extent of leakage (in percentage) at increasing peptide-to-lipid ratio (mol/mol) 1:100: peptide-to-lipid ratio 1:100 (mol/mol); for Extent of leakage (in percentage) at increasing peptide-to-lipid ratio (mol/mol) 1:10: peptide-to-lipid ratio 1:10 (mol/mol); for Extent of leakage (in percentage) at increasing peptide-to-lipid ratio (mol/mol) 1:20: peptide-to-lipid ratio 1:20 (mol/mol); for Extent of leakage (in percentage) at increasing peptide-to-lipid ratio (mol/mol) 1:50: peptide-to-lipid ratio 1:50 (mol/mol)
Experimental: (§1) Chemicals. […] (Prague, Czech Republic), and Caslo ApS (Kongens Lyngby, Denmark). […] The bacterial stock was stored at -80°C.
Calcein leakage assay. Pore-forming activity of the peptides was tested by their ability to leak the self-quenching fluorescent dye calcein entrapped within POPC:POPG (1:1 mol/mol) large unilamellar vesicles (LUVs). After mixing DiD to the lipid mixture (in the ratio 1:500 mol/mol), a thin lipid film was created by evaporating of the chloroform, traces of which were removed by desiccating overnight. The lipid film was then dissolved in calcein buffer, followed by vigorous vortexing. The lipid suspension was subsequently subjected to 10 freeze-thaw cycles. To obtain uniform LUVs, the sample was passed 50 times back and forth through an extruder stacked with 100 nm pore size polycarbonate membrane filter. Afterwards, the untrapped calcein was removed on a HiTrap Desalting Column (with Sephadex G-25 Superfine resin) by washing with PBS buffer. The concentration of the lipid suspension was then adjusted to 0.02 mM. The concentration of the peptide solution was 0.1 mM. The inventors monitored the peptide-induced release of calcein from LUVs by the increase in fluorescence intensity after adding increasing amounts of peptides to the LUVs under constant stirring at 25 °C. The investigated range of peptide/lipid molecular ratio was from 1:100 to 1:10. The excitation and emission wavelengths were set to 495 nm and 520 nm, respectively. Maximum fluorescence intensity was obtained by disrupting all the vesicles in the end by adding 10% Triton X-100. Experiments were performed in triplicates with independently prepared lipid vesicles.

[2] = system: Gram-negative Escherichia coli TOP10 strain; assay type: cell-based; conditions: for Antibacterial activity (MIC in µM) E. coli TOP10: broth microdilution assay; for MIC against E. coli: 24 h at 37 °C, dilution series 50 to 0.1 µM
Experimental: as §1
(§2) Broth microdilution assay. Antimicrobial activity of the peptides was investigated against Gram-negative Escherichia coli TOP10 strain and Gram-positive Staphylococcus carnosus CCM 4838T using broth microdilution assay, based on which the inventors determined the bacterial minimum inhibition concentration (MIC). After cross streaking with bacteria, the petri dishes (with MHA) were incubated for 24 h at 37 °C. Overnight grown cultures were then sub-cultured for 4-6 h at 37 °C in test tubes containing MHB. The sub-cultured solutions were subsequently diluted to a standard concentration of 10^6 colony forming units (CFU) per mL. Cell counts were determined by measuring the optical density at 600 nm. In a flat-bottomed 96 well plate, the inventors prepared a dilution series for the peptides and for the reference antibiotic ampicillin from 50 to 0.1 µM concentration, which was then inoculated with bacteria and incubated for 24 h at 37 °C. Growth control wells were free from peptides or ampicillin to show the viability of the bacteria, and sterility control wells were free from bacterial inoculation to verify the sterility of the medium. The bacterial growth was visually evaluated based on the turbidity. MIC was determined as the lowest concentrated well where no visible bacterial growth was observed. To test the bacteriostatic or bacteriocidal activity of the peptides, 50 µl solution from the highest concentrated well (i.e., 50 µM) was transferred to a test tube containing 4 mL sterile MHB and incubated for 24 h at 37 °C under constant stirring. Streaking of the same solution was done on MHA containing petri dishes and incubated for 24 h at 37 °C to confirm the morphology of the colonies grown. Experiments were performed in triplicates.

[3] = system: Gram-positive Staphylococcus carnosus CCM 4838T; assay type: cell-based; conditions: for Antibacterial activity (MIC in µM) S. carnosus: CCM 4838
Experimental: as §1, §2

[4] = system: human red blood cells (HRBCs); assay type: cell-based
Experimental: as §1
Hemolysis assay. Hemolytic toxicity of the peptides was evaluated from their ability to lyse the fresh human red blood cells (HRBCs) collected from the University Hospital (Brno, Czech Republic). To obtain the erythrocyte pellets, the blood samples were centrifuged twice at 700×g and subsequently, once at 1000×g, each for 8 min. at 4 °C, which was followed by thorough washing with PBS. Resuspension of the pellets was done in PBS to obtain 0.5% (vol/vol) RBC suspension. In a well plate with 96 V-shaped bottom wells, the peptides were added in a dilution series from 0.1 to 50 µM concentration. Subsequently, HRBC suspension was added in each well. Negative control wells contained only PBS and HRBC suspension without any peptide (i.e., 0% lysis), and positive control wells included 5 µM melittin in the HRBC suspension. After incubation for 1 h at 37 °C, the well plates were centrifuged at 1000×g for 10 min. at 4 °C. Subsequently, the supernatant was collected in a flat-bottomed well plate and the optical density of the released hemoglobin was measured for each well at 415 nm wavelength. The calculated absorbances from the wells were then normalized against the averaged absorbances of the positive and the negative control wells. EC50 value was calculated from the normalized absorbances indicating 50% hemolysis of HRBCs. Experiments were performed in triplicates with three independent blood samples.

[5] = hemolysis assay, HRBCs, read-out: Toxicity (EC50 in µM) HRBCs

| Substance | Extent of leakage (in percentage) at increasing peptide-to-lipid ratio (mol/mol) 1:100 [1] | Antibacterial activity (MIC in µM) S. carnosus [3] [µM] | Extent of leakage (in percentage) at increasing peptide-to-lipid ratio (mol/mol) 1:10 [1] | Extent of leakage (in percentage) at increasing peptide-to-lipid ratio (mol/mol) 1:20 [1] | Extent of leakage (in percentage) at increasing peptide-to-lipid ratio (mol/mol) 1:50 [1] | Antibacterial activity (MIC in µM) E. coli TOP10 [2] [µM] | also measured |
| --- | --- | --- | --- | --- | --- | --- | --- |
| H-HHHHLKKILKKLFQFINQLDNQLQDIHHHH-OH [KDFA2i+2-Hter] | 102.5 ± 1.2 percentage | > 50 | – | – | – | – | extent of calcein leakage at peptide-to-lipid (P:L) ratio 1:100 ([1]; POPC:POPG (1:1) LUVs): 100%; antimicrobial activity against E. coli (in words) [2]: did not show antibacterial activity; antimicrobial activity against S. carnosus (in words) [3]: did not show antibacterial activity |
| H-KKKKVKKILKKLIQLIDQLDKDLQDIKKKK-NH2 [KD16+9-NH2] | 58.8 ± 4.8 percentage | – | 99.1 ± 2.5 percentage | 93.1 ± 0.7 percentage | 83.0 ± 1.5 percentage | – | calcein / vesicle leakage, pore-forming ability (in words) ([1]; POPC:POPG (1:1) LUVs): resulted in vesicle leakage; EC50 [4]: > 50 µM |
| KKKKKLKKILKKLFQFINQLDNQLQDIKKKKK [KDFA2i+12] | – | 0.4 | – | – | – | 0.4 | EC50 [4, 5]: > 50 µM |
| KKKKLKKILKKLFQFINQLDNQLQDFKQNK [KDFA2i+8(I26F)] | – | 0.8 | – | – | – | 0.4 | EC50 [4, 5]: > 50 µM |
| KKKKLKKILKKLFQFINQLDNQLQDIKQNK [KDFA2i+8] | – | 0.4 | – | – | – | 0.2 | EC50 [4, 5]: > 50 µM |
| KKKKLKKILKKLFQFINQLENQLQEIKQNK-NH2 [KEFA2i+9-NH2] | – | 0.8 | – | – | – | 0.8 | EC50 [4, 5]: > 50 µM |
| KKKKLKKILKKLWQWINQLDNQLQDIKQNK-NH2 [KDWA2i+9-NH2] | – | 0.8 | – | – | – | 0.4 | EC50 [4, 5]: > 50 µM |
| NQKKLKKILNQLFQFINQLDNQLQDIKKQN [KDFA2] | 82.8 ± 1.5 percentage | – | – | – | 100.2 ± 0.2 percentage | 50 | EC50 [4]: > 50 µM; MIC against E. coli [2]: 50 µM |
| NQKKLRRILRRLFQFIDQLDNDLQDIKKQN [RDFC16Kter] | 64.5 ± 6.1 percentage | – | – | 102.2 ± 0.5 percentage | 85.3 ± 4.3 percentage | 50 | EC50 [4]: > 50 µM; MIC against E. coli [2]: 50 µM |
| NQRRLQNILRRLFQFIDQLINDLQNIRRQN [RDFA5] | Aggregated peptides and no leakage | – | Aggregated peptides and no leakage | Aggregated peptides and no leakage | Aggregated peptides and no leakage | – | – |
| NQRRLQNILRRLFQFINQLIDDLQNIRRQN [RDFA7] | Aggregated peptides and no leakage | – | Aggregated peptides and no leakage | Aggregated peptides and no leakage | Aggregated peptides and no leakage | – | – |
| NQRRLRRILNQLFQFINQLDNQLQDIRQNR [RDFA2i] | Aggregated peptides and no leakage | – | Aggregated peptides and no leakage | Aggregated peptides and no leakage | Aggregated peptides and no leakage | – | – |
| NQRRLRRILNQLFQFINQLDNQLQDIRRQN [RDFA2] | 80.2 ± 8.2 percentage | – | – | 102.9 ± 0.9 percentage | 97.4 ± 4.5 percentage | > 50 | EC50 [4]: > 50 µM |
| NQRRLRRILNQLWQWINQLDNQLQDIRRQN [RDWA2] | Aggregated peptides and no leakage | – | Aggregated peptides and no leakage | Aggregated peptides and no leakage | Aggregated peptides and no leakage | – | – |
| NQRRLRRILRRLFQFIDQLDNDLQDIRRQN [RDFC16] | Aggregated peptides and no leakage | – | Aggregated peptides and no leakage | Aggregated peptides and no leakage | Aggregated peptides and no leakage | – | – |
| NQRRLRRILRRLFQFINQLIDDLDDIRRQN [RDFC21] | Aggregated peptides and no leakage | – | Aggregated peptides and no leakage | Aggregated peptides and no leakage | Aggregated peptides and no leakage | – | – |
| NQRRLRRILRRLWQWINQLIDDLDDIRRQN [RDWC21] | Aggregated peptides and no leakage | – | Aggregated peptides and no leakage | Aggregated peptides and no leakage | Aggregated peptides and no leakage | – | – |
